Data from patent US7064120B2, “Tricyclic pyridyl carboxamides and derivatives thereof tocolytic oxytocin receptor antagonists” (Wyeth, priority 2001, dated 2006).

Biological target: T1, human vasopressin V1a receptor subtype (Homo sapiens, UniProt P37288)
T1 construct: host or cells: CHO cells, stably transfected (pZeoSV vector for the Thibonnier line)
Experiment: Vasopressin binding in CHO cell membranes expressing human vasopressin V1a subtype receptors ([3H]Manning ligand radioligand binding)
Conditions: 100 nM
Method: Vasopressin Binding in Chinese Hamster Ovary Cell Membranes Expressing Human Vasopressin V1a Subtype Receptors
The trypsin is removed by aspiration and the cells dislodged by tapping. Cell Culture medium (e.g. 30 mL for 1:30 split) is immediately added and mixed well to inactivate trypsin. 1 mL of detached cells is added to new culture flasks containing fresh cell culture medium (e.g., into 25 mL per T-150 flask), and mixed gently. The cells are incubated at 37° C. in 5% CO2. The medium is changed at 3 to 4 days interval (or as appropriate). […] All steps are done under sterile conditions.
The cells are washed twice gently with Hank's Balanced Salt solution (e.g,. use 10 mL per T-150 flask). […] The contents are transferred to centrifuge tubes (50 mL) kept in an ice bath. All subsequent steps are done at 4° C. The tubes are centrifuged at 300×g for 15 min (1380 rpm on SORVAL, Model RT6000D, using the rotor for 50 mL tubes). The supernatant is discarded and the cells suspended in homogenizing buffer(10 mM Tris-HCl containing 0.25 M sucrose and 1 mM EDTA, pH 7.4) ensuring that the volume of the buffer is about ten times the volume of the cell pellet. The cells are pooled into a centrifuge tube (50 mL) and homogenized with Polytron at setting 6 for 10 sec. The homogenate is transferred into a Potter-Elvjehm homogenizer and homogenized with 3 strokes. The homogenate is centrifuged at 1500×g for 10 min at 4° C. (3100 rpm using SORVAL, model RT6000D, using the rotor for 50 mL tubes). The pellet is discarded. The supernatant is centrifuged at 100,000×g for 60 min. at 4° C. (Beckman L8-80M ultracentrifuge; spin at 37,500 rpm with rotor type 70 Ti for 50 mL tubes; 38,000 rpm with type 80Ti for 15 mL tubes; or 35,800 rpm with rotor type 45Ti). The supernantant is discarded and the pellet suspended in 3 to 4 mL of Tris buffer (50 mM TRIS-HCl, pH 7.4). The protein content is estimated by the Bradford or Lowry method. The volume of the membrane suspension is adjusted with the membrane buffer (50 mM Tris-HCl containing 0.1% BSA and 0.1 mM PMSF) to give 3.0 mg/mL (or as appropriate) of protein. The membranes are aliquoted and stored at −70° C.
In wells of a 96-well format microtiter plate, is added 90, 110 or 130 μL (to make up a final volume of 200 μL) of assay buffer containing 50 mM of Tris-HCl (pH 7.4), BSA (heat inactivated, protease-free), […], 1 mg % aprotinin, 1 mg % leupeptin, 2 mg % 1,10-phenanthroline, 10 mg % trypsin inhibitor, and 0.1 mM PMSF. The inhibitors are added on the day of the experiment. The components are mixed at room temperature, and then kept in ice bath following adjustment of the pH to 7.4. […] 20 μL of 50% DMSO is added for Manning and other peptide ligands and the assay buffer volume is adjusted accordingly. To each well is added 50 μL of frozen membrane suspension thawed immediately prior to use and diluted in the assay buffer to the required concentration (equivalent to 25 to 50 μg of protein/well as needed). 20 μL of 8 nM [^3H]Manning ligand in the assay buffer, prepared just before use, is added, and incubated at room temperature for 60 min. shaking the plate on a mechanical shaker for the first 15 min. The incubation is stopped by rapid filtration of the plate contents followed by wash with ice-cold buffer (50 mM Tris-HCl, pH 7.4) using a cell harvester (Tomtek and Printed filtermat-B filter paper). The filter paper is thoroughly dried (7–12 min. in a microwave oven) and impregnated with MeltiLex B/H melt-on scintillation wax sheets and the radioactivity counted in a betaplate scintillation counter.
Binding data is either reported as percent inhibition at a certain concentration or if an IC50 was calculated, as a nanomolar concentration.

T1 sequence (P37288 whole entry): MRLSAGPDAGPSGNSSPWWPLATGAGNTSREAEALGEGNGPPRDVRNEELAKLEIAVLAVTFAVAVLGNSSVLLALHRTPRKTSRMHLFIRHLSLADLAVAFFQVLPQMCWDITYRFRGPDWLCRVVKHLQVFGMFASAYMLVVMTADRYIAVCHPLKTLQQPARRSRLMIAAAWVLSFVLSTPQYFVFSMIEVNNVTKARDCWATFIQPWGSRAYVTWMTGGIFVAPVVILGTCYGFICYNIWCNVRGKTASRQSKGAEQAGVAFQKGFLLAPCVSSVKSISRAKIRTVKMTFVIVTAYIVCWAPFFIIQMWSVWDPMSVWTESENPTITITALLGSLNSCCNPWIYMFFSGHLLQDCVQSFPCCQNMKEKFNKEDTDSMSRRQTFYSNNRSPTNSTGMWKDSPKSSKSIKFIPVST

inhibition at 0.1 µM	SMILES	V1a % inhibition @ 100 nM
68%	COc1cc(C(=O)N2Cc3ccc(C(=O)N(C)Cc4cccnc4)n3Cc3ccccc32)ccc1-c1ccccc1C [Example 106, 10-[(2-Methoxy-2′-methyl-[1,1′-biphenyl]-4-yl)carbonyl]-N-methyl-N-(3-pyridinylmethyl)-10,11-dihydro-5H-pyrrolo[2,1-c][1,4]benzodiazepine-3-carboxamide]	
12%	COc1cc(-c2ccccc2C)c(Cl)cc1C(=O)N1Cc2ccc(C(=O)N(C)Cc3cccnc3)n2Cc2ccccc21 [Example 107, 10-[(6-Chloro-3-methoxy-2′-methyl-[1,1′-biphenyl]-4-yl)carbonyl]-N-methyl-N-(3-pyridinylmethyl)-10,11-dihydro-5H-pyrrolo[2,1-c][1,4]benzodiazepine-3-carboxamide]	
4%	COc1cccc(-c2cc(OC)c(C(=O)N3Cc4ccc(C(=O)N(C)Cc5cccnc5)n4Cc4ccccc43)cc2Cl)c1 [Example 108, 10-[(6-Chloro-3,3′-dimethoxy-[1,1′-biphenyl]-4-yl)carbonyl]-N-methyl-N-(3-pyridinylmethyl)-10,11-dihydro-5H-pyrrolo[2,1-c][1,4]benzodiazepine-3-carboxamide]	
7%	COc1cc(C(=O)N2Cc3ccc(C(=O)N(C)Cc4cccnc4)n3Cc3ccccc32)ccc1-c1cccc2ccccc12 [Example 109, 10-[3-Methoxy-4-(naphthalen-1-yl)benzoyl]-N-methyl-N-(3-pyridinylmethyl)-10,11-dihydro-5H-pyrrolo[2,1-c][1,4]benzodiazepine-3-carboxamide]	
	COc1cccc(-c2ccc(C(=O)N3Cc4ccc(C(=O)N(C)Cc5cccnc5)n4Cc4ccccc43)cc2OC)c1 [Example 110]	49%
4%	CN(Cc1cccnc1)C(=O)c1ccc2n1Cc1ccccc1N(C(=O)c1ccc(-c3cccc4ccccc34)cc1Cl)C2 [Example 111, 10-[2-Chloro-4-(naphthalen-1-yl)benzoyl]-N-methyl-N-(3-pyridinylmethyl)-10,11-dihydro-5H-pyrrolo[2,1-c][1,4]benzodiazepine-3-carboxamide]	
56%	Cc1ccccc1-c1ccc(C(=O)N2Cc3ccc(C(=O)N4CCN(c5ccncc5)CC4)n3Cc3ccccc32)cc1C [Example 114, {10-[(2,2′-Dimethyl-[1,1′-biphenyl]-4-yl)carbonyl]-10,11-dihydro-5H-pyrrolo[2,1-c][1,4]benzodiazepin-3-yl}[4-(4-pyridinyl)-1-piperazinyl]methanone]	
22%	COc1cccc(-c2ccc(C(=O)N3Cc4ccc(C(=O)N5CCN(c6ccncc6)CC5)n4Cc4ccccc43)cc2C)c1 [Example 115, {10-[(3′-Methoxy-2-methyl-[1,1′-biphenyl]-4-yl)carbonyl]-10,11-dihydro-5H-pyrrolo[2,1-c][1,4]benzodiazepin-3-yl}[4-(4-pyridinyl)-1-piperazinyl]methanone]	
77%	COc1ccccc1-c1ccc(C(=O)N2Cc3ccc(C(=O)N4CCN(c5ccncc5)CC4)n3Cc3ccccc32)cc1 [Example 116, {10-[(2′-Methoxy-[1,1′-biphenyl]-4-yl)carbonyl]-10,11-dihydro-5H-pyrrolo[2,1-c][1,4]benzodiazepin-3-yl}[4-(4-pyridinyl)-1-piperazinyl]methanone]	
1%	Cc1ccccc1-c1ccc(C(=O)N2Cc3ccc(C(=O)N4CCN(c5ccncc5)CC4)n3Cc3ccccc32)cc1 [Example 117, {10-[(2′-Methyl-[1,1′-biphenyl]-4-yl)carbonyl]-10,11-dihydro-5H-pyrrolo[2,1-c][1,4]benzodiazepin-3-yl}[4-(4-pyridinyl)-1-piperazinyl]methanone]	
	COc1cc(C(=O)N2Cc3ccc(C(=O)N4CCN(c5ccncc5)CC4)n3Cc3ccccc32)ccc1-c1ccccc1C [Example 118]	62%
9%	COc1cc(-c2ccccc2C)c(Cl)cc1C(=O)N1Cc2ccc(C(=O)N3CCN(c4ccncc4)CC3)n2Cc2ccccc21 [Example 119, {10-[(6-Chloro-3-methoxy-2′-methyl-[1,1′-biphenyl]-4-yl)carbonyl]-10,11-dihydro-5H-pyrrolo[2,1-c][1,4]benzodiazepin-3-yl}[4-(4-pyridinyl)-1-piperazinyl]methanone]	
6%	COc1cccc(-c2cc(OC)c(C(=O)N3Cc4ccc(C(=O)N5CCN(c6ccncc6)CC5)n4Cc4ccccc43)cc2Cl)c1 [Example 120, {10-[(6-Chloro-3,3′-dimethoxy-[1,1′-biphenyl]-4-yl)carbonyl]-10,11-dihydro-5H-pyrrolo[2,1-c][1,4]benzodiazepin-3-yl}[4-(4-pyridinyl)-1-piperazinyl]methanone]	
17%	COc1cc(C(=O)N2Cc3ccc(C(=O)N4CCN(c5ccncc5)CC4)n3Cc3ccccc32)ccc1-c1cccc2ccccc12 [Example 121, {10-[3-Methoxy-4-(naphthalen-1-yl)benzoyl]-10,11-dihydro-5H-pyrrolo[2,1-c][1,4]benzodiazepin-3-yl}[4-(4-pyridinyl)-1-piperazinyl]methanone]	
9%	COc1ccccc1-c1ccc(C(=O)N2Cc3ccc(C(=O)N4CCN(c5ccncc5)CC4)n3Cc3ccccc32)cc1OC [Example 122, {10-[(2,2′-Dimethoxy-[1,1′-biphenyl]-4-yl)carbonyl]-10,11-dihydro-5H-pyrrolo[2,1-c][1,4]benzodiazepin-3-yl}[4-(4-pyridinyl)-1-piperazinyl]methanone]	
71%	COc1cccc(-c2ccc(C(=O)N3Cc4ccc(C(=O)N5CCN(c6ccncc6)CC5)n4Cc4ccccc43)cc2OC)c1 [Example 123, {10-[(2,3′-Dimethoxy-[1,1′-biphenyl]-4-yl)carbonyl]-10,11-dihydro-5H-pyrrolo[2,1-c][1,4]benzodiazepin-3-yl}[4-(4-pyridinyl)-1-piperazinyl]methanone]	
11%	O=C(c1ccc2n1Cc1ccccc1N(C(=O)c1ccc(-c3cccc4ccccc34)cc1Cl)C2)N1CCN(c2ccncc2)CC1 [Example 124, {10-[2-Chloro-4-(naphthalen-1-yl)benzoyl]-10,11-dihydro-5H-pyrrolo[2,1-c][1,4]benzodiazepin-3-yl}[4-(4-pyridinyl)-1-piperazinyl]methanone]	
17%	COc1ccccc1-c1ccc(C(=O)N2Cc3ccc(C(=O)N(C)CCc4ccncc4)n3Cc3ccccc32)cc1OC [Example 125, 10-[(2,2′-Dimethoxy-[1,1′-biphenyl]-4-yl)carbonyl]-N-methyl-N-[2-(4-pyridinyl)ethyl]-10,11-dihydro-5H-pyrrolo[2,1-c][1,4]benzodiazepine-3-carboxamide]	
38%	COc1ccccc1-c1ccc(C(=O)N2Cc3ccc(C(=O)N(C)CCc4ccncc4)n3Cc3ccccc32)cc1C [Example 126, 10-[(2′-Methoxy-2-methyl-[1,1′-biphenyl]-4-yl)carbonyl]-N-methyl-N-[2-(4-pyridinyl)ethyl]-10,11-dihydro-5H-pyrrolo[2,1-c][1,4]benzodiazepine-3-carboxamide]	
66%	Cc1ccccc1-c1ccc(C(=O)N2Cc3ccc(C(=O)N(C)CCc4ccncc4)n3Cc3ccccc32)cc1C [Example 127, 10-[(2,2′-Dimethyl-[1,1′-biphenyl]-4-yl)carbonyl]-N-methyl-N-[2-(4-pyridinyl)ethyl]-10,11-dihydro-5H-pyrrolo[2,1-c][1,4]benzodiazepine-3-carboxamide]	
